Data as given in patent publication US9850203B2, “Autotaxin inhibitor compounds” (PharmAkea, Inc., priority 2013, dated 2017).

Target: human autotaxin (ATX) (Homo sapiens (Human), UniProt Q13822)
Assay: Human Autotaxin Assay
Format: biochemical
Settings: concentrated conditioned media from Hep3B cells; LPC substrate, choline release
How it was run: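 Autotaxin source: Hep3B conditioned medium concentrated 20-fold, preincubated with compound 15 min at 37° C in lyso-PLD buffer (100 mM Tris pH 9, 500 mM NaCl, 5 mM MgCl2, 5 mM CaCl2, 0.05% Triton X-100, ±0.2% fatty-acid-free HSA). 100 uM LPC (14:0) then added, 1.5-3 hours at 37° C; choline release measured.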

With Cc1c(Sc2cccc(C(=O)O)c2F)c2ccc(Cl)c(F)c2n1CC(=O)N1C[C@H](O)[C@@H](N2CCN(C)CC2)C1 [Compound 2-70, 3-((6-Chloro-7-fluoro-1-(2-((3S,4S)-3-hydroxy-4-(4-methylpiperazin-1-yl)pyrrolidin-1-yl)-2-oxoethyl)-2-methyl-1H-indol-3-yl)thio)-2-fluorobenzoic acid] the IC50 was no more than 500 nM.

Cc1c(Sc2cccc(C(=O)O)c2)c2ccc(Cl)c(F)c2n1CC(=O)N1CCC2(CC1)CNC(=O)O2 [Compound 1-12] was tested, and the IC50 was no more than 500 nM.

Cc1c(Sc2cccc(C(=O)O)c2)c2ccc(Cl)c(F)c2n1CC(=O)N1CC2(CNC(=O)C2)C1 [Compound 1-49, 3-((6-Chloro-7-fluoro-2-methyl-1-(2-oxo-2-(7-oxo-2,6-diazaspiro[3,4]octan-2-yl)ethyl)-1H-indol-3-yl)thio)benzoic acid] gave an IC50 of no more than 500 nM.

Cc1c(Sc2cccc(C(=O)O)c2)c2ccc(Cl)c(F)c2n1CC(=O)N1CCC(Cc2ccncc2)C1 (stereo not shown) [Compound 1-88, 3-((6-Chloro-7-fluoro-2-methyl-1-(2-oxo-2-(3-(pyridin-4-ylmethyl)pyrrolidin-1-yl)ethyl)-1H-indol-3-yl)thio)benzoic acid] showed an IC50 of no more than 500 nM.

Work on Cc1c(Sc2cccc(C(=O)O)c2)c2ccc(Cl)c(F)c2n1CC(=O)N1CC2CCCCC2C1 (stereo not shown) [Compound 1-98, 3-((6-Chloro-7-fluoro-1-(2-(hexahydro-1H-isoindol-2(3H)-yl)-2-oxoethyl)-2-methyl-1H-indol-3-yl)thio)benzoic acid] yielded an IC50 of no more than 500 nM.

Cc1c(Sc2cccc(C(=O)O)c2F)c2ccc(Cl)c(F)c2n1CC(=O)N1CC2(CCC2)c2ccccc21 [Compound 3-220, 3-((6-Chloro-7-fluoro-2-methyl-1-(2-oxo-2-(spiro[cyclobutane-1,3′-indolin]-1′-yl)ethyl)-1H-indol-3-yl)thio)-2-fluorobenzoic acid] showed an IC50 of no more than 500 nM.

Cc1c(Sc2cccc(C(=O)O)c2)c2ccc(Cl)c(F)c2n1CC(=O)N1CC(O)(C(F)(F)F)C1 [Compound 1-84, 3-((6-Chloro-7-fluoro-1-(2-(3-hydroxy-3-(trifluoromethyl)azetidin-1-yl)-2-oxoethyl)-2-methyl-1H-indol-3-yl)thio)benzoic acid] showed an IC50 of no more than 500 nM.

Work on CCCC1CCN(C(=O)Cn2c(C)c(Sc3cccc(C(=O)O)c3)c3ccc(Cl)c(F)c32)C1 (stereo not shown) [Compound 1-77, 3-((6-Chloro-7-fluoro-2-methyl-1-(2-oxo-2-(3-propylpyrrolidin-1-yl)ethyl)-1H-indol-3-yl)thio)benzoic acid] yielded an IC50 of no more than 500 nM.

Work on Cc1c(Sc2cccc(C(=O)O)c2)c2ccc(Cl)c(F)c2n1CC(=O)N1CCC2(CC2)C1 [Compound 1-95, 3-((6-Chloro-7-fluoro-2-methyl-1-(2-oxo-2-(5-azaspiro[2.4]heptan-5-yl)ethyl)-1H-indol-3-yl)thio)benzoic acid] yielded an IC50 of no more than 500 nM.

With Cc1c(Sc2cccc(C(=O)O)c2)c2ccc(Cl)c(F)c2n1CC(=O)N1CC2(CC2)c2cc(F)ccc21 [Compound 1-32, 3-((6-Chloro-7-fluoro-1-(2-(5′-fluorospiro[cyclopropane-1,3′-indolin]-1′-yl)-2-oxoethyl)-2-methyl-1H-indol-3-yl)thio)benzoic acid] the IC50 was no more than 500 nM.

Cc1c(Sc2cccc(C(=O)O)c2)c2ccc(Cl)c(F)c2n1CC(=O)N1CCCC1 [Compound 1-9, 3-((6-Chloro-7-fluoro-2-methyl-1-(2-oxo-2-(pyrrolidin-1-yl)ethyl)-1H-indol-3-yl)thio)benzoic acid] was tested, and the IC50 was no more than 500 nM.

In the case of Cc1c(Sc2cccc(C(=O)O)c2)c2ccc(Cl)c(F)c2n1CC(=O)NCC(F)(F)F [Compound 1-5, 3-((6-Chloro-7-fluoro-2-methyl-1-(2-oxo-2-((2,2,2-trifluoroethyl)amino)ethyl)-1H-indol-3-yl)thio)benzoic acid], the IC50 is reported as no more than 500 nM.

Cc1c(Sc2cccc(C(=O)O)c2)c2ccc(Cl)c(F)c2n1CC(=O)N1CCC(Cc2ccc(F)cc2)C1 (single isomer, unassigned; enantiomer b) [Compound 1-66, 3-((6-Chloro-7-fluoro-1-(2-(3-(4-fluorobenzyl)pyrrolidin-1-yl)-2-oxoethyl)-2-methyl-1H-indol-3-yl)thio)benzoic acid Enantiomer B] showed an IC50 of 500 to 3000 nM.
